The results in this text go back to ChEMBL document CHEMBL1128884, “Selective inhibition of the tyrosine kinase pp60src by analogs of 5,10-dihydropyrimido[4,5-b]quinolin-4(1H)-one” (Bioorg Med Chem Lett, 1995).

For experiment [1], the target named is cAMP-dependent protein kinase (PKA) (Homo sapiens, UniProt P22694+P17612+P22612). Put plainly: Inhibition of cAMP-dependent kinase (Protein kinase A). The class given is protein assay.
For experiment [2], the target named is Proto-oncogene tyrosine-protein kinase Src (Homo sapiens, UniProt P12931). Put plainly: Inhibition of cellular oncogene pp60 c-src.
Experiment [3] concerns the target Epidermal growth factor receptor (Homo sapiens, UniProt P00533). The experiment is described as follows: Inhibition of epidermal growth factor receptor (EGFR).

Where only a bound is given, the exact number is not on record here.

Sequence of Proto-oncogene tyrosine-protein kinase Src (P12931 2-536 limits assumed): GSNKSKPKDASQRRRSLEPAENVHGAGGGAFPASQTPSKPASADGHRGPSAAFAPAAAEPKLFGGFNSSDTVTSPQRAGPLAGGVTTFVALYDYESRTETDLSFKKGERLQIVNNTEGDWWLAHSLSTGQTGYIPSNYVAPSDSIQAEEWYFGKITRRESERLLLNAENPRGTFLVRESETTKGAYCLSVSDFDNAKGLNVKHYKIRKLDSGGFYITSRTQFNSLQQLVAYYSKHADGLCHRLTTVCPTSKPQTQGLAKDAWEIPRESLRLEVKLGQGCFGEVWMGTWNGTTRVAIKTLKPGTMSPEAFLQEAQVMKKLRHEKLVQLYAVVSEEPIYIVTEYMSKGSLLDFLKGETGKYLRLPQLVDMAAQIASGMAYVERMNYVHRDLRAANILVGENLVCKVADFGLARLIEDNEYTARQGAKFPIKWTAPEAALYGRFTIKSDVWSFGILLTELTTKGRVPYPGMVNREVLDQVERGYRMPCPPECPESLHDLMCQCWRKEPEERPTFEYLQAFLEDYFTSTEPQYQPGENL
Sequence of Epidermal growth factor receptor (P00533 whole entry): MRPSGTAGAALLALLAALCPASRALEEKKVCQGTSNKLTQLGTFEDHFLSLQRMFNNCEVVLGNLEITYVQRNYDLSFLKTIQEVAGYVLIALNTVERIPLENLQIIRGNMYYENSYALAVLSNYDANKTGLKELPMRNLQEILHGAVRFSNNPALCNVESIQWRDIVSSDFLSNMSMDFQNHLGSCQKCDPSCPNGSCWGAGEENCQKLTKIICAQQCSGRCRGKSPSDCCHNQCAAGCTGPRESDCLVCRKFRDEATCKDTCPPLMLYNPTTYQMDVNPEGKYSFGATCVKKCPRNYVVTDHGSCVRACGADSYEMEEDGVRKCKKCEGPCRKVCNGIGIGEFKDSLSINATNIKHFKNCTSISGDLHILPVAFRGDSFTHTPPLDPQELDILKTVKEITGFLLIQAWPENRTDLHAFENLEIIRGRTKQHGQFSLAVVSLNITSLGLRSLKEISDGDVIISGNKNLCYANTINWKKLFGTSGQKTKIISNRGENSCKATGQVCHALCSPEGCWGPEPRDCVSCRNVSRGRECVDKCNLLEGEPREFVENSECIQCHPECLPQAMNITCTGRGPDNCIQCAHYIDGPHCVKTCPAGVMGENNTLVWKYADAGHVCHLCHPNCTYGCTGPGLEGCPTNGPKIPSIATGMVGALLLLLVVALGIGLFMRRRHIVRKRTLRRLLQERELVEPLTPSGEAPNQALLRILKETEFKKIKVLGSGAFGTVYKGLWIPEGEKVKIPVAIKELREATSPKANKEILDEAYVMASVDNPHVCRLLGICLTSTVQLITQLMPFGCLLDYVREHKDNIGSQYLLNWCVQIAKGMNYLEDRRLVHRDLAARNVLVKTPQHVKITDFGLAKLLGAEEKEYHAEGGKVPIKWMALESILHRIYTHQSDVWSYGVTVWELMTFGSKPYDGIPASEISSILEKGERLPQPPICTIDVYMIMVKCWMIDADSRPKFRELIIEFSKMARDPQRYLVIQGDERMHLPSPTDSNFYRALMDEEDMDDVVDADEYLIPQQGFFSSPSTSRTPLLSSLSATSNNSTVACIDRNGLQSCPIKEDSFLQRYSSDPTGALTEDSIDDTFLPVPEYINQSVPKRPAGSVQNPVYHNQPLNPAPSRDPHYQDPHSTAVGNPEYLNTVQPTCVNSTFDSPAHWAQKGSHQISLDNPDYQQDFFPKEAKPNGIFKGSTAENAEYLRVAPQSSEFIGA

What is called IC50 is the concentration that inhibits the measured activity by half. Higher therefore signals a need for much substance. For `COc1ccc2c(c1)Nc1ncnc(O)c1C2`, the IC50 in experiment [1] was greater than 3000 µM; in experiment [2] it was 0.5 µM.
`Oc1[nH]cnc2nc3ccccc3c1-2` came in with an IC50 in experiment [2] of 293 µM.
In the case of `COc1cc2c(cc1OC)Nc1ncn(CCN3CCOCC3)c(=O)c1C2`, the concentration for half-maximal inhibition (IC50) in experiment [1] was greater than 1000 µM; in experiment [2], 105 µM.
`COc1cc2c(cc1OC)Nc1ncnc(O)c1C2`: the IC50 in experiment [1] was greater than 3000 µM; in experiment [2], 0.5 µM; in experiment [3], 75 µM.
`Oc1ncnc2c1Cc1ccccc1N2`: the figures for the IC50 in experiment [1] and in experiment [2] were greater than 3000 µM and 9.1 µM, respectively.
The matching figures for `COc1ccc2c(c1)Cc1c(O)ncnc1N2`: greater than 3000 µM and 3.7 µM.
On to `COc1cc2c(cc1OC)Nc1ncn(C)c(=O)c1C2`, for which the IC50 in experiment [1] was greater than 3000 µM; in experiment [2], 1.2 µM; in experiment [3], 160 µM.
For the compound `Oc1cc(Nc2ccccc2)ncn1`, the IC50 in experiment [1] was greater than 4000 µM; in experiment [2], 1550 µM.
The corresponding values for `COc1cc2cc3c(O)ncnc3nc2cc1OC` are greater than 750 µM and 32 µM.
The matching figures for `CCc1nc(O)c2c(n1)Nc1ccccc1C2`: greater than 3000 µM and 38 µM.
Consider `CCN1c2ccccc2Cc2c(O)ncnc21`, for which the IC50 in experiment [1] was greater than 960 µM; in experiment [2] it was 550 µM.
